Entries after “also recorded” stand apart in the source; their conditions may differ.
Columns and labels:
Sprague-Dawley rats [1] = test: animal or person; settings: for ED50: Rattus norvegicus; for Approximate therapeutic index / Minimal lethal dose: rats
Experimental: (§1) Adult male Sprague-Dawley rats (250-300 g) were selected for the experiment. […] The anesthesia effects of the compounds were assessed in rats using a LORR assay and a period >30 s was considered as an indicator of general anesthesia.

H295R cell line [2] = test: Adrenocortical function in vitro test: secretion of cortisol and corticosterone, Group A compounds; assay type: cell-based; settings: H295 cells; for EC50: Homo sapiens, 0.1-10000 nM, HPLC-MS/MS
Sprague-Dawley rats [3] = test: Pharmacological characteristics at equivalent doses (2ED50), Group A compounds; assay type: in vivo; settings: 2ED50, tail vein; for Types and incidence of adverse reactions: (animals affected/animals)
H295R cell line [4] = test: Adrenocortical function in vitro test: secretion of cortisol and corticosterone, Group B compounds; assay type: cell-based; settings: H295R cells; for EC50: 0.1-10000 nM, HPLC-MS/MS
Sprague-Dawley rats [5] = test: animal or person; settings: for ED50: LORR in rats, tail vein, brackets = 95% confidence limit; for Approximate therapeutic index / Minimal lethal dose: rats
Experimental: as §1

[6] = read-out: EC50 (Corticosterone)
[7] = Homo sapiens, NCI-H295R, read-out: EC50 (Corticosterone)
[8] = Homo sapiens, NCI-H295R, read-out: EC50 (Cortisol)

Row | SMILES | ED50 (Sprague-Dawley rats [1]) [mg/kg] | Approximate therapeutic index (Sprague-Dawley rats [1]) | Minimal lethal dose (Sprague-Dawley rats [1]) [mg/kg] | Corticosterone as an indicator to determine the presence of inhibition (H295R cell line [2]) | Cortisol as an indicator to determine the presence of inhibition (H295R cell line [2]) | EC50 (H295R cell line [2]; [6]) [nM] | EC50 (H295R cell line [2]; read-out: EC50 (Cortisol)) [nM] | Onset time (Sprague-Dawley rats [3]) [min] | Righting reflex duration (Sprague-Dawley rats [3]) [min] | Types and incidence of adverse reactions (Sprague-Dawley rats [3]) | Corticosterone as an indicator to determine the presence of inhibition (H295R cell line [4]) | Cortisol as an indicator to determine the presence of inhibition (H295R cell line [4]) | EC50 (H295R cell line [4]; [6]) [nM] | EC50 (H295R cell line [4]; read-out: EC50 (Cortisol)) [nM] | ED50 (Sprague-Dawley rats [5]) | Approximate therapeutic index (Sprague-Dawley rats [5]) | Minimal lethal dose (Sprague-Dawley rats [5]) [mg/kg] | EC50 (H295R cell line [4]; [7]) [nM] | EC50 (H295R cell line [4]; [8]) [nM] | ED50 (Sprague-Dawley rats [5]; Rattus norvegicus) [mg/kg]
1 | C=CC#CC(C)(C)OC(=O)c1ccnn1[C@H](C)c1ccccc1 [Compound A16] | 2 to 6 | >4 | >12 | 0 | 0 | > 100 | > 100 | 0.55 ± 0.21 | 2.55 ± 1.54 | – | – | – | – | – | – | – | – | – | – | –
2 | CC#CC1(OC(=O)c2ccnn2[C@H](C)c2ccccc2)COC1 [Compound A10] | 2 to 6 | >5 | >12 | 0 | 0 | > 1000 | > 1000 | 0.43 ± 0.22 | 1.32 ± 0.61 | Red urine(8/8),; also recorded: Tremor(3/8), Forelimb; also recorded: clonic; also recorded: convulsion(2/8), Hindlimb; also recorded: rigidity(2/8), Facial; also recorded: muscle twitching(2/8),; also recorded: Nod(1/8) | – | – | – | – | – | – | – | – | – | –
3 | C=CC1(OC(=O)c2c(F)cnn2[C@H](C)c2ccccc2)COC1 [Compound A87] | 0.5 to 1 | >18 | >13 | 0 | 0 | > 1000 | > 1000 | 0.30 ± 0.12 | 2.21 ± 0.24 | – | – | – | – | – | – | – | – | – | – | –
4 | CC(=O)C1=C(OC(=O)c2ccnn2[C@H](C)c2ccccc2)CCC1 [Compound A18] | 2 to 6 | >3 | >8 | 0 | 0 | > 100 | > 100 | 0.73 ± 0.10 | 1.19 ± 0.64 | Red urine(8/8), Hindlimb; also recorded: rigidity(5/8) | – | – | – | – | – | – | – | – | – | –
5 | CO[C@H]1C[C@@H](OC(=O)c2c(F)c(F)nn2[C@H](C)c2ccccc2)C1 [Compound A94] | 0.5 to 1 | >12 | >12 | 0 | 0 | > 1000 | > 1000 | 0.33 ± 0.12 | 1.26 ± 0.40 | Red and urine(8/8), Tremor(3/8), and Four limbs and rigidity(2/8), Euphoria(1/8) | – | – | – | – | – | – | – | – | – | –
6 | C=C=CC1(OC(=O)c2c(F)c(F)nn2[C@H](C)c2ccccc2)COC1 [Compound A92] | 0.04 to 0.5 | >14 | >1 | 0 | 0 | > 1000 | > 1000 | 0.43 ± 0.22 | 2.03 ± 0.33 | Red and urine(8/8), Tremor(2/8), and Euphoria(1/8) | – | – | – | – | – | – | – | – | – | –
7 | CCOC(=O)c1cnnn1[C@H](C)c1ccccc1 [Compound B1] | – | – | – | – | – | – | – | – | – | – | 0 | 0 | > 100 | > 50 | A (A indicates that the measured ED50 is in the range of 0.04-0.50 mg/kg (including 0.04 and 0.50 mg/kg)) | >20 | >8 | – | – | –
8 | C[C@H](c1ccccc1)n1nnc(Br)c1C(=O)OC1CC1 [Compound B116] | – | – | – | – | – | – | – | – | – | – | 0 | 0 | – | – | – | >9 | >12 | > 3000 | > 3000 | 1 to 2
9 | CO[C@H]1C[C@@H](OC(=O)c2c(F)nnn2[C@H](C)c2ccccc2)C1 [Compound B40] | – | – | – | – | – | – | – | – | – | – | 0 | 0 | – | – | – | >6 | >6 | > 100 | > 100 | 0.5 to 1
10 | CCOC(=O)c1nnn([C@H](C)c2ccccc2)c1C(F)(F)F [Compound B146] | – | – | – | – | – | – | – | – | – | – | 0 | 0 | > 3000 | > 3000 | C (C indicates that the measured ED50 is in the range of 1.00-2.00 mg/kg (excluding 1.00 mg/kg, including 2.00 mg/kg)) | >8 | >14 | – | – | –
11 | CCOC(=O)c1c(Cl)nnn1[C@H](C)c1ccccc1 [Compound B65] | – | – | – | – | – | – | – | – | – | – | 0 | 0 | – | – | – | >13 | >9 | > 1000 | > 1000 | 0.5 to 1
12 | C[C@H](c1ccccc1)n1nncc1C(=O)OC1CC1 [Compound B18] | – | – | – | – | – | – | – | – | – | – | 0 | 0 | – | – | – | >12 | >14 | > 100 | > 100 | 1 to 2
13 | C=CCOC(=O)c1c(Br)nnn1[C@H](C)c1ccccc1 [Compound B108] | – | – | – | – | – | – | – | – | – | – | 0 | 0 | > 3000 | > 3000 | B (B indicates that the measured ED50 is in the range of 0.50-1.00 mg/kg (excluding 0.50 mg/kg, including 1.00 mg/kg)) | >20 | >14 | – | – | –
14 | CC(C)OC(=O)c1cnnn1[C@H](C)c1ccccc1 [Compound B17] | – | – | – | – | – | – | – | – | – | – | 0 | 0 | – | – | – | >56 | >16 | > 1000 | > 1000 | 0.04 to 0.5
15 | COC(=O)C1=C(OC(=O)c2cnnn2[C@H](C)c2ccccc2)CCCC1 [Compound B30] | – | – | – | – | – | – | – | – | – | – | 0 | 0 | – | – | – | >10 | >10 | > 1000 | > 1000 | 0.5 to 1
16 | CO[C@H]1C[C@@H](OC(=O)c2cnnn2[C@H](C)c2ccccc2)C1 [Compound B8] | – | – | – | – | – | – | – | – | – | – | 0 | 0 | – | – | – | >9 | >8 | > 1000 | > 1000 | 0.5 to 1
17 | C[C@H](c1ccccc1)n1nnc(I)c1C(=O)OCC1CC1 [Compound B133] | – | – | – | – | – | – | – | – | – | – | 0 | 0 | – | – | – | >20 | >14 | > 1000 | > 1000 | 0.5 to 1
18 | COC(=O)C1=C(OC(=O)c2c(F)nnn2[C@H](C)c2ccccc2)CCC1 [Compound B36] | – | – | – | – | – | – | – | – | – | – | 0 | 0 | – | – | – | >7 | >5 | > 1000 | > 1000 | 0.5 to 1
